Data on four compounds can be found in ChEMBL document CHEMBL1201862, “PubChem BioAssay data set” (2004).

Activity calls are given as the source filed them. Rule as the data show it, for most assays here: actives have a measured IC50 and inactives only a lower limit.

The target of assay [1] is SUMO E1/E2 (Homo sapiens, UniProt P63279+Q9UBE0+Q9UBT2). Briefly: SAR analysis of SUMOylation using HTRF in an in-Vitro dose response assay. [Related pubchem assays (depositor defined):AID2006, AID2011, AID2018, AID2069, AID2658]. Format: functional. A general note: TR-FRET usually uses a lanthanide donor and a delayed reading to cut background.
The target in assay [2] is T1, Voltage-gated N-type calcium channel alpha-1B subunit/Amyloid beta A4 precursor protein-binding family A member 1 (Homo sapiens, UniProt Q00975+Q02410). Briefly: disruptors of Mint-PDZ/N-type channel peptide interaction – biochemical, HTRF, SAR follow-up (AID 2489). Type of assay: functional.
Assay [3] concerns the target T1, Voltage-gated N-type calcium channel alpha-1B subunit/Amyloid beta A4 precursor protein-binding family A member 1. Nature of the assay: disruptors of Mint-PDZ/N-type channel peptide interaction – biochemical, HTRF, set 2, SAR follow-up (AID 434980). Type of assay: functional.
In assay [4] the target is Tumor necrosis factor (Homo sapiens, UniProt P01375). Briefly: analog potency on TNFa NF-kB signaling – cell-based, set 3, SAR follow-up (AID 2801). Format: functional.
The subject of assay [5] is HEK293. Nature of the assay: SAR analysis of compounds that are cytotoxic to HEK293 - Set 3. [Related pubchem assays (depositor defined):AID1575, AID1578, AID1848, AID1849, AID2001, AID2333, AID2334, AID2335, AID2337, AID2469]. Type of assay: functional, cell-based. Particulars: Homo sapiens.
The target of assay [6] is Nucleotide-binding oligomerization domain-containing protein 2 (Homo sapiens, UniProt Q9HC29). Nature of the assay: inhibition of MDP-driven NOD2 NF-kB reporter – cell-based, set 3, SAR follow-up (AID 2799). Type of assay: functional.
For assay [7], the target named is Nucleotide-binding oligomerization domain-containing protein 1 (Homo sapiens, UniProt Q9Y239). Briefly: SAR analysis of compounds that inhibit NOD1 - Set 3. [Related pubchem assays (depositor defined):AID1566, AID1575, AID1578, AID1849, AID1852, AID2333, AID2335, AID2466]. Format: functional.
In assay [8] the target is Voltage-dependent T-type calcium channel subunit alpha-1H (Homo sapiens, UniProt O95180). Briefly: human CACNA1H calcium influx blockade – cell-based, synthetic library set 2, HEK293 HH8, Fluo-4, SAR follow-up (AID 493023). Format: functional.
Assay [9] has as its target T2, Tyrosine-protein phosphatase non-receptor type 22 (Homo sapiens, UniProt Q9Y2R2).
T2 sequence (Q9Y2R2 whole entry): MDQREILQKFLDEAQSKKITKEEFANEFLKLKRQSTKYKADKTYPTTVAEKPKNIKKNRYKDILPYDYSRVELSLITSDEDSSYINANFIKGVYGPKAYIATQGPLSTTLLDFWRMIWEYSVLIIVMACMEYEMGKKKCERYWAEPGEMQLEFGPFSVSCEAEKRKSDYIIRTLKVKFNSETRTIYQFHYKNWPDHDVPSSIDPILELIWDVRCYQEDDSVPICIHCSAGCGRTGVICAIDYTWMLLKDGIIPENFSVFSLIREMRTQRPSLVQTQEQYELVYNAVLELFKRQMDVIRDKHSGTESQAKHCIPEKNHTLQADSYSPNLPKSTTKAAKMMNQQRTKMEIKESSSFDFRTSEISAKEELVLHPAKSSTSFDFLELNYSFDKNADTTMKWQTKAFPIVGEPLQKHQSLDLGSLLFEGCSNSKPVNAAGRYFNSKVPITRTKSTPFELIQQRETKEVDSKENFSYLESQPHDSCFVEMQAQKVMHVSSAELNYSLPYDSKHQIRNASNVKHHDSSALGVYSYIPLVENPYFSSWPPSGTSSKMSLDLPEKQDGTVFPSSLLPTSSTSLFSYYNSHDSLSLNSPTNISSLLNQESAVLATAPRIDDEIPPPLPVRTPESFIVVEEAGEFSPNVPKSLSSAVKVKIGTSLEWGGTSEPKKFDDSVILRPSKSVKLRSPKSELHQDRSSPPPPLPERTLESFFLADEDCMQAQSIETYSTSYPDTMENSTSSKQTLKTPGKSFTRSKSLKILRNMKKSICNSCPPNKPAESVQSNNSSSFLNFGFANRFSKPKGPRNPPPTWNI
Format: functional.

Assay [10] concerns the target T2, Tyrosine-protein phosphatase non-receptor type 22. Type of assay: functional. This is another data set of the same source.
For assay [11], the target named is Tyrosine-protein phosphatase non-receptor type 7 (Homo sapiens, UniProt P35236). Type of assay: functional.
Tyrosine-protein phosphatase non-receptor type 7, sequence (P35236 whole entry): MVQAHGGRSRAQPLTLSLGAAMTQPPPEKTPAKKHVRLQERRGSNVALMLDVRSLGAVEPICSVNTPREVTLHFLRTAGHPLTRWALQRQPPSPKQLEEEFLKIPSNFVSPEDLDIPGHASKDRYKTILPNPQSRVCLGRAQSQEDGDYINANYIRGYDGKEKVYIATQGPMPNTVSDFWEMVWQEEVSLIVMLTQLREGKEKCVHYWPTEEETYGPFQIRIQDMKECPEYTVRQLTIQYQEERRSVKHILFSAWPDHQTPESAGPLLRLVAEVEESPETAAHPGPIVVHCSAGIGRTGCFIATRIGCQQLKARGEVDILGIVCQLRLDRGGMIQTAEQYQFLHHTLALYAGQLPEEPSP

T1 sequence (Q00975 whole entry): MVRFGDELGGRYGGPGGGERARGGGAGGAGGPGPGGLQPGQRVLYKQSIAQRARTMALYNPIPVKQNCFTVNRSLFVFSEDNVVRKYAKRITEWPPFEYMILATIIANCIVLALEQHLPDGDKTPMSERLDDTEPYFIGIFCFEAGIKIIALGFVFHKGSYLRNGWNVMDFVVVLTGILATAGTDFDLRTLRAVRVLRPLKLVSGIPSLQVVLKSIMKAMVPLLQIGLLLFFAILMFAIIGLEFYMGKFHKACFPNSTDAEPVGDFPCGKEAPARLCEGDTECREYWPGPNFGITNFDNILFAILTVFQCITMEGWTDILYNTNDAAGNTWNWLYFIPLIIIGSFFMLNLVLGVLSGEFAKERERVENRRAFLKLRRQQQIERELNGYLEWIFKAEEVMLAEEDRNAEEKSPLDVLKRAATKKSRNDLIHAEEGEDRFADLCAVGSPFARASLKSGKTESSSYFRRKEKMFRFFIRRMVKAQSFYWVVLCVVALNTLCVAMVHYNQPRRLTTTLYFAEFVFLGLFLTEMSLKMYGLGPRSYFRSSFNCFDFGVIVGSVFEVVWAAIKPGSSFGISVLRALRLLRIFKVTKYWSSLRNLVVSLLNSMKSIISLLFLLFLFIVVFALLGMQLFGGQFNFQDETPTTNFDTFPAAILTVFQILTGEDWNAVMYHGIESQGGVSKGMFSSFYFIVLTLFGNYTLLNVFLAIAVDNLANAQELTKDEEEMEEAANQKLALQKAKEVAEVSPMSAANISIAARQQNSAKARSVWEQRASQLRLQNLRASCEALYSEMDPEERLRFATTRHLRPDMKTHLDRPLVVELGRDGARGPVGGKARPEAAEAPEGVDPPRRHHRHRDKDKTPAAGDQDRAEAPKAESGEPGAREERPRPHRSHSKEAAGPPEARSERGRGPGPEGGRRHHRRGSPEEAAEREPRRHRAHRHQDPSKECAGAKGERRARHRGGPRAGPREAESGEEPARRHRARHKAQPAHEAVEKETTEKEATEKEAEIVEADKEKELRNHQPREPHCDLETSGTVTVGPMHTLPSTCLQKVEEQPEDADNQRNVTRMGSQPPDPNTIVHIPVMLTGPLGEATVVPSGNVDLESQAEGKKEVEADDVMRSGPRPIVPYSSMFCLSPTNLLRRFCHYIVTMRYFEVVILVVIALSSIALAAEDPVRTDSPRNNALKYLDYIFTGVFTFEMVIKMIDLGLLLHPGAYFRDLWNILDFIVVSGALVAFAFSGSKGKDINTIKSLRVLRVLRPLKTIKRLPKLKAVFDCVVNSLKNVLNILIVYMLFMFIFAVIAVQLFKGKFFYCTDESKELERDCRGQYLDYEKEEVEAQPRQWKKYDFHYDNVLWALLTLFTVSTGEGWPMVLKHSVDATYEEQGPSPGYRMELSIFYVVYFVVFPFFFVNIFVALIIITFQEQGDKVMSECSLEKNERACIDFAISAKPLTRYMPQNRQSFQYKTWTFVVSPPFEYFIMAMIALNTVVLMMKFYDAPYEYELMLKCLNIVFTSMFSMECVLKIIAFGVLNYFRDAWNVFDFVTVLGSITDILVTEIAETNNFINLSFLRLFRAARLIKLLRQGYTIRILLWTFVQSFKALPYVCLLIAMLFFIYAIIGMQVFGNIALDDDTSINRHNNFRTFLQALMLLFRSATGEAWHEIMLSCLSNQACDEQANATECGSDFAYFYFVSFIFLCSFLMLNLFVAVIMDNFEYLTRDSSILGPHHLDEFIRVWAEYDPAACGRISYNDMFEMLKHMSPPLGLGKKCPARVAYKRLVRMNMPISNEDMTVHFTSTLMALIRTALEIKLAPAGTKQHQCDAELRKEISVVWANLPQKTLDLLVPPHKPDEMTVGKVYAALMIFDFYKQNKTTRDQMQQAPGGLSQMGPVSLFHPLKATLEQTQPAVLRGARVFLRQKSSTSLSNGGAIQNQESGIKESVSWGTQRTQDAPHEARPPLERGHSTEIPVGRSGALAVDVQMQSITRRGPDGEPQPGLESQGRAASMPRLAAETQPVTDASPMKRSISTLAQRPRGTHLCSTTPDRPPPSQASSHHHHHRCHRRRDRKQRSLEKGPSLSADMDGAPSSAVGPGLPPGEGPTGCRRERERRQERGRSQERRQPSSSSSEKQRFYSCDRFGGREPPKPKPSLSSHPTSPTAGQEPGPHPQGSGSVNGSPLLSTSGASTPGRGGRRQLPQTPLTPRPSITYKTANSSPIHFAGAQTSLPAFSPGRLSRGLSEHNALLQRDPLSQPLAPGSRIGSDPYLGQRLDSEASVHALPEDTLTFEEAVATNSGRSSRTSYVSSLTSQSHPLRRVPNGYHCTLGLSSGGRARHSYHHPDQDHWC
T1 sequence (Q02410 whole entry): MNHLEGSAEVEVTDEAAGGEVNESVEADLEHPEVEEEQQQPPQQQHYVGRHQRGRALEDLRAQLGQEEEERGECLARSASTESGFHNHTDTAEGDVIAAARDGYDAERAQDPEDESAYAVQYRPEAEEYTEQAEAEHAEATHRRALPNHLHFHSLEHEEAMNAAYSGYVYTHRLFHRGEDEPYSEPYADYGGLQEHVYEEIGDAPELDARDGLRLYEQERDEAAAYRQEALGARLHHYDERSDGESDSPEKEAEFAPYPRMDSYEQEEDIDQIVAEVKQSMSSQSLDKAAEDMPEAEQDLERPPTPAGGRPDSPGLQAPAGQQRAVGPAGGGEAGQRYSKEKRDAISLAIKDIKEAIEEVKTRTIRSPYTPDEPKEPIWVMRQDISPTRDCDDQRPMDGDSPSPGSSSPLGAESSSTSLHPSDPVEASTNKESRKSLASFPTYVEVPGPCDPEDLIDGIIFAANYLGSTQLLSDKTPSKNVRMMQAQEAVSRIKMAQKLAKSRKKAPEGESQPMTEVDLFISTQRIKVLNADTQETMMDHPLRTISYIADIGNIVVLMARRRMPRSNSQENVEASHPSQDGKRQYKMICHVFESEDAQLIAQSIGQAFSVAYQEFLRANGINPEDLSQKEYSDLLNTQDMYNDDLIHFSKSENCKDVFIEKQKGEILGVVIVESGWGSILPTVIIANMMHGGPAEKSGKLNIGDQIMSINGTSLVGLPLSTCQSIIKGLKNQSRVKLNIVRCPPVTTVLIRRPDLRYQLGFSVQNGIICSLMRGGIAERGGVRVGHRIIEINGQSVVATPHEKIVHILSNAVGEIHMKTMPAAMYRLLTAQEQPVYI
Tumor necrosis factor, sequence (P01375 whole entry): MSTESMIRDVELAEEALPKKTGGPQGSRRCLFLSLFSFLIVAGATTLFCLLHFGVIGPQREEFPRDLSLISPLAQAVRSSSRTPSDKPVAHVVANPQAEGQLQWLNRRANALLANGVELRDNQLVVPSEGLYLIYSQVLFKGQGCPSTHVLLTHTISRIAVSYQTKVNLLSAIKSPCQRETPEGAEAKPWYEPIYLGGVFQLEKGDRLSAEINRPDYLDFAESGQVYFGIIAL
Nucleotide-binding oligomerization domain-containing protein 2, sequence (Q9HC29 whole entry, the tested form may be a part): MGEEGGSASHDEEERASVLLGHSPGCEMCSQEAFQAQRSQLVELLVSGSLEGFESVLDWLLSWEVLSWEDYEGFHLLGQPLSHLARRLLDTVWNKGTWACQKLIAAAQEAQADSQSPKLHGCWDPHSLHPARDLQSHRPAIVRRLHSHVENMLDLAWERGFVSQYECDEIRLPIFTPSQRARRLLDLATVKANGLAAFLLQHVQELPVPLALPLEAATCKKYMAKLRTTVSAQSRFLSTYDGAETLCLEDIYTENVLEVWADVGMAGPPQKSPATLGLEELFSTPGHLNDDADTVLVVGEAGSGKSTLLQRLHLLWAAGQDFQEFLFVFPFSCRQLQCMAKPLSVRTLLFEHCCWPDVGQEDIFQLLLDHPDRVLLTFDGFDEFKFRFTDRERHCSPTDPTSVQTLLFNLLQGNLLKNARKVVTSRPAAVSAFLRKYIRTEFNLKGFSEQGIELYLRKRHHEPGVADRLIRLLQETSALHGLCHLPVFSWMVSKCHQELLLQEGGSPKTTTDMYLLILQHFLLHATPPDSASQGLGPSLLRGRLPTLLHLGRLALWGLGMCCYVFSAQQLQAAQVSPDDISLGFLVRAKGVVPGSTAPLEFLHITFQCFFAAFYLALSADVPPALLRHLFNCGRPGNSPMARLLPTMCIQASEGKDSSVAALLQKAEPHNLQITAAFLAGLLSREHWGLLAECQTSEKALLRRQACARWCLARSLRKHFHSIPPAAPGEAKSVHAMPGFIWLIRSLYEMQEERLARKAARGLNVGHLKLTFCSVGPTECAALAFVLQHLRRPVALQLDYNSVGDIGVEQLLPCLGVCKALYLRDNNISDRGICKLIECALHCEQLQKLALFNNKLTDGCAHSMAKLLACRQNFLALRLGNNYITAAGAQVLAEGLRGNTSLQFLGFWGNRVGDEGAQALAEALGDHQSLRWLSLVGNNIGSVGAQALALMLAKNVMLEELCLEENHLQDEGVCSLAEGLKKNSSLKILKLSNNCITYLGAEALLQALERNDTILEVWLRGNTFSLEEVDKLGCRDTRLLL

The IC50 is the point on the concentration scale where inhibition reaches its midpoint. With `COc1ccccc1CNC(=O)CCOC(=O)c1cc(-c2ccco2)nc2ccccc12`, the half-maximal inhibitory concentration (IC50) is 38.6 µM (active) in [1], > 56.8 µM (inactive) in [2] and 23 µM (active) in assay [3].

Turning to `CN(C(=O)c1ccccc1)C(c1ccccc1)c1c[nH]c2ccccc12` (stereo unspecified), the IC50 in assay [4] was > 20 µM (inactive); in assay [5], > 20 µM (inactive); in assay [6] it was 12.4 µM (active); in [7], > 20 µM (inactive).

As usually defined, the EC50 is the concentration needed to bring the measured effect to its halfway point. For the compound `O=C(COc1ccc(F)c(Cl)c1)N[C@H]1CCCN(Cc2ccccc2)C1`, the 50% effective concentration (EC50) in assay [8] was 10 µM (active).

Turning to `O=C1C=C(NCCNc2c(F)c(F)c(CO)c(F)c2F)CCC1`, the IC50 in assay [9], in assay [10] and in assay [11] was > 79.4 µM (inactive) throughout.
